Results taken from patent publication US9884042B2, “Formulations of cyclopropanecarboxylic acid {2-[(1S)-1-(3-ethoxy-4-methoxy-phenyl)-2-methanesulfonyl-ethyl]-3-oxo-2,3-dihydro-1H-isoindol-4-yl}-amide” (Celgene Corporation, priority 2011, dated 2018).
pIC50: −log10 of the molar value.

What was measured:
[1] = test system: PDE4 enzyme from U937 human monocytic cells; assay: Enzyme assay using purified PDE4 enzyme; assay type: biochemical
Excerpt: Cyclopropane carboxylic acid {2-[(1S)-1-(3-ethoxy-4-methoxy-phenyl)-2-methanesulfonyl-ethyl]-3-oxo-2,3-dihydro-1H-isoindol-4-yl}-amide (“Compound A”) is a novel compound with anti-inflammatory activity in clinical development for the treatment of a variety of chronic inflammatory conditions. Pharmacologically, Compound A blocks the degradation of cyclic adenosine monophosphate (cAMP) via inhibition of the phosphodiesterase type IV (PDE4) enzyme, resulting in an increase in cAMP in PDE4-expressing cells including monocytes, T cells, and neutrophils. Enzyme assay data using purified PDE4 enzyme from U937 human monocytic cells indicate that Compound A has a PDE4 IC50 of 100 nM (50 ng/mL). Compound A and methods for its synthesis are described, e.g., in U.S. Patent Publication No. 2010/0129363, the disclosure of which is hereby incorporated by reference in its entirety. Compound A may also be prepared according to the process described in U.S. Patent Publication No. 2010/0168475, the disclosure of which is hereby incorporated in its entirety.

[2] = Solubility of the drug substance; assay type: physicochemical; conditions: qualitative statement
Excerpt: Due to its diversified pharmacological properties, Compound A is useful in treating, preventing, and/or managing various diseases or disorders.

CCOc1cc([C@@H](CS(C)(=O)=O)N2Cc3cccc(NC(=O)C4CC4)c3C2=O)ccc1OC [Compound A, cyclopropanecarboxylic acid {2-[(1S)-1-(3-ethoxy-4-methoxy-phenyl)-2-methanesulfonyl-ethyl]-3-oxo-2,3-dihydro-1H-isoindol-4-yl}-amide]
pIC50 [1]: 7.00
PDE4 IC50 ([1]; same value in mass units): 0.05 µg/mL
Solubility [2]: poorly soluble
